Reference: patent US20090298912A1, “Arginase II: A Target treatment of aging heart and heart failure” (The Johns Hopkins University, priority 2005, published 2009)
Entries after “also recorded” stand apart in the source; their conditions may differ.

Columns and labels:
[1] = test system: isolated rat cardiac myocytes; assay: Contractility (sarcomere shortening) in isolated rat myocytes; format: cell-based; conditions: for Emax, increase in myocardial contractility (sarcomere shortening) / EC50: dose response; for EC50: log value, read-out: LogEC50, increase in myocardial contractility (sarcomere shortening) (converted); for Sarcomere shortening, agent alone: agent alone (L-arginine 0.1 mM), n=3, species of myocytes not stated; for Effect on the BEC-induced increase in contractility: L-NAME 10^−4 M (0.1 mM), SMTC 10 μM
Description: (§1) Measurement of Contractility in Isolated Rat and Mouse Myocytes: Both rat and mouse myocytes were isolated by enzymatic digestion as previously described (2, 3). Myocytes were transferred to a lucite chamber on the stage of an inverted microscope (Nikon TE 200), continuously superfused with Tyrodes containing 1.0 mM Ca^2+, and stimulated at 1 Hz. Sarcomere length was recorded with an IonOptix intensified charged coupled device camera (iCCD) camera. Change in average sarcomere length was determined by fast Fourier transform of the Z-line density trace to the frequency domain (IonOptix, Milton, Mass.) as previously described (2, 3).
(§2) Data Analysis and Statistics: All data are presented as mean±SEM, with N being indicated for each experimental protocol. For dose responses, data was fitted using the software program Prism 4 (Graphpad) and Emax and EC50 calculated. Statistical analysis was performed using one-way analysis of variance with post test or unpaired Student t test where appropriate.

arginase [2] = target: T1, arginase (Rattus norvegicus, UniProt O08701); assay: Arginase activity in rat heart and isolated myocyte homogenates; format: biochemical; conditions: isolated rat myocytes, dose-dependent
T1 construct: Arginase activity is present in both whole rat heart (n=4) and isolated rat myocytes (n=3); from tissue; host or cells: Wistar rat heart tissue and freshly isolated rat cardiac myocytes (homogenates)
T1 sequence (O08701 23-354): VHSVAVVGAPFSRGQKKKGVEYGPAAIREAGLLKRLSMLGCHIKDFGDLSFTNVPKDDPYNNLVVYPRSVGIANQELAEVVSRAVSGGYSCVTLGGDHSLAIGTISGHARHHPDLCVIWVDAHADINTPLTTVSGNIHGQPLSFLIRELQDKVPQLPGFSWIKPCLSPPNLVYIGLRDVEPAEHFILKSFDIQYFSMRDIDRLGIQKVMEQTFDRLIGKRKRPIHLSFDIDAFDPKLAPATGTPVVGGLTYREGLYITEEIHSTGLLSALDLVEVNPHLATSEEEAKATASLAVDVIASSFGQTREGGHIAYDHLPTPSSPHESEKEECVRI
Description: (§3) Arginase Activity: Rat hearts and myocytes were homogenized in lysis buffer (50 mM Tris-HCl, pH 7.5, 0.1 mM EDTA and protease inhibitor) and centrifuged for 30 min at 14,000 g at 4° C. for an arginase activity assay as described previously (20).

arginase [3] = assay: as above; format: biochemical; conditions: whole rat heart homogenate, dose-dependent
Description: as §3

isolated mouse myocytes = assay: Contractility (sarcomere shortening) in isolated mouse myocytes (WT, NOS1 and NOS3 deficient); format: cell-based
Description: Animals: Mice (8 to 10 weeks old) homozygous for targeted disruption of the NOS1 gene (NOS1^−/−, n=3), the NOS3 gene (NOS3^−/−, n=3), and wild-type control mice (WT, C57BL6J, n=3) were purchased from Jackson Laboratories. All rats (Wistar, 11 to 14 weeks old) were purchased from Harlan Laboratory. All protocols conformed to the current National Institutes of Health and American Physiological Society Guidelines for the Use and Care of Laboratory Animals.
as §1, §2

NO production = NO production (nitrite levels) in heart and isolated cardiac myocyte lysates; format: biochemical, rat; conditions: for NO production: BEC 10 μmol/L, n=6; for Effect on myocyte NO production: isolated myocytes, exogenous L-arginine 0.1 mM alone
Description: NOS Activity and NO Production: NO production was evaluated by measuring nitrite levels (Calbiochem) following pre-incubation of heart and myocytes with BEC (10 μmol/L) in PBS (pH 7.4) as previously described (52).

`N[C@@H](CSCCB(O)O)C(=O)O` [BEC, S-(2-boronoethyl)-L-cysteine] was tested, and the “Contractility, fold change in sarcomere shortening” value ([1]; isolated rat myocytes, BEC 10^−5M alone (FIG. 4a)) was 2.1±0.14 fold change, the “Contractility (sarcomere shortening), fold change” value ([1]; isolated rat myocytes, BEC alone, NOS1 inhibitor experiment (FIG. 5a)) was 2.06±0.14 and the “Emax, increase in myocardial contractility (sarcomere shortening)” value ([1]; isolated rat myocytes) was 1.8±0.3 fold increase. For the same molecule, the EC50 ([1]; isolated rat myocytes) was 1580 nM, the “Effect on sarcomere shortening” value ([1]; isolated rat myocytes, increasing doses) was “dose dependently increased” and the “Arginase activity in presence of inhibitor” value (arginase [2]) was “inhabitable; also recorded: inhibited”. For the same molecule, the “Arginase activity in presence of inhibitor” value (arginase [3]) was “inhibitable; also recorded: inhibited”, the “Emax, basal sarcomere shortening” value (isolated mouse myocytes; myocytes from NOS1 deficient mice) was 1.11±0.08 and the “Effect on contractility” value (isolated mouse myocytes; myocytes from NOS1 deficient mice, increasing doses) was “no effect”. The “Emax, basal sarcomere shortening” value (isolated mouse myocytes; myocytes from NOS3 deficient mice) was 1.81±0.17, the “Effect on sarcomere shortening” value (isolated mouse myocytes; myocytes from NOS3 deficient mice, increasing doses) was “dose dependently increased” and the “Effect on sarcomere shortening” value (isolated mouse myocytes; myocytes from WT mice, increasing doses) was “dose dependently increased”. The “Emax, basal sarcomere shortening” value (isolated mouse myocytes; myocytes from wild type mice) was 1.97±0.24, the NO production (NO production; heart lysates) was 16.7±1 μmol/mg protein and the NO production (NO production; isolated myocyte lysates) was 11.1±2.2 μmol/mg protein.
With `COC(=O)[C@@H](N)CCCNC(=N)N[N+](=O)[O-]` [L-NAME] the “Sarcomere shortening, agent alone” value [1] was 0.76±0.06 fold change and the “Effect on the BEC-induced increase in contractility” value ([1]; isolated rat myocytes) was “completely abolished; also recorded: completely inhibited”.
In the case of `N=C(N)NCCC[C@H](N)C(=O)O` [L-arginine], the “Sarcomere shortening, agent alone” value [1] is reported as 1.1±0.05 fold change, the “Effect on myocyte NO production” value (NO production) is reported as “did not effect” and the “Effect on myocyte NO production” value (NO production; listed as L-Arginine) is reported as “no effect”.
For `N=C(NO)NCC[C@H](N)C(=O)O` [Nor-NOHA, N-hydroxy-nor-L-arginine], the “Increase in contractility (sarcomere shortening)” value ([1]; isolated rat myocytes, Nor-NOHA dose response (FIG. 4b legend)) was 1.9±0.45 fold increase, the “Emax, increase in myocardial contractility (sarcomere shortening)” value ([1]; isolated rat myocytes) was 1.98±0.23 fold increase and the EC50 ([1]; isolated rat myocytes) was 1580 nM.
For `CSC(N)=NCCC[C@H](N)C(=O)O` [SMTC], the “Effect on the BEC-induced increase in contractility” value ([1]; isolated rat myocytes) was “abolished; also recorded: inhibited”.
